Where two headings read alike, the source gives them in different places. Marks after values point to notes of the source that are not given here.
Columns and labels:
DARPP-32 [1] = assay: DARPP-32 phosphorylation in mouse brain slices, immunoblotting with phosphorylation state-specific antibodies; settings: for phospho-Thr34 DARPP-32 / phospho-Thr75 DARPP-32: prefrontal cortex slices, n=6; for phospho-Thr34 DARPP-32: 2 min of incubation; for phospho-Thr75 DARPP-32: 10 min of incubation
DARPP-32 [2] = settings: cited from earlier work
phospho-Ser137-DARPP-32 = assay: Dephosphorylation of phospho-Ser137-DARPP-32 by recombinant PP2C isoforms; format: biochemical, rat; settings: [^32P]phospho-Ser137 DARPP-32 as substrate; in the presence of 10 mM Mn^2+
Procedure: The activity of PP2C isoforms using ^32P-DARPP (phosphorylated at Ser137) was assayed at 37° C. in a reaction mixture containing 25 mM Tris-HCl, pH 7.5, 10 mM MnCl2, 1% BSA, and […] substrate, in a total volume of […]. Reactions were stopped by addition of […] of 50% trichloroacetic acid. Samples were then incubated on ice for 30 min and centrifuged at 10,000 g for 10 min at 4° C. Radioactivity recovered in the supernatant was measured by Cerenkov counting in a scintillation counter (Beckman).
(§1) Kinetic parameters (Km and Vmax) were determined from Lineweaver-Burk plots.
Legend Table 8. Enzymatic activities of PP2C isoforms assayed using [^32P]phospho-Ser137 DARPP-32 as substrate. Phosphatase activity was measured by the release of ^32P, and Km and Vmax values were calculated from Lineweaver-Burk plots of the data.

[3] = pNPP hydrolysis by recombinant PP2C isoforms (phosphatase assay); format: biochemical, rat; settings: for Vmax of pNPP hydrolysis, Mn^2+ compared to Mg^2+ (higher): 20 mM Mn^2+ versus 20 mM Mg^2+; for Vmax / kcat / Km: pNPP as substrate; for Km: 37° C.
Procedure: The activity of PP2C isoforms using pNPP as substrate was assayed as previously described (Brumel et al., 1997). […] The reaction was stopped by addition of 1 ml of 0.1 M NaOH, and the initial rate of p-nitrophenol release was determined spectrophotometrically at 405 nm (using a molar extinction coefficient of 18 000 M−1 cm−1).
as §1
Legend Table 7. Enzymatic activities of PP2C isoforms assayed using pNPP as substrate. Phosphatase activity was measured using pNPP as substrate by the change in absorbance at 405 nm. Km and Vmax values were calculated from Lineweaver-Burk plots of the data.

[4] = neostriatal slices, compound at 100 μM, 2 min incubation, vehicle control = 100
[5] = neostriatal slices, compound at 100 μM, 10 min incubation, vehicle control = 100
[6] = Mus musculus, 2 min, read-out: Percent Phospho-Thr34
[7] = Mus musculus, 10 min, read-out: Percent Phospho-Thr75
[8] = Mus musculus, 2 min, read-out: Percent Phospho-Ser137
[9] = neostriatal slices, compound at 10 μM, 2 min incubation
[10] = neostriatal slices, compound at 10 μM, 10 min incubation
[11] = neostriatal slices, compound at 300 μM, 2 min incubation

COc1cc(CC(C)N)c(OC)cc1I.Cl (racemic) [DOI, (±)-2,5-dimethoxy-4-iodoamphetamine hydrochloride; (±)-1-(2,5 dimethoxy-4-iodophenyl)-2-aminopropane]
Percent Phospho-Ser137 (DARPP-32 [1]; [4]): 158(8.3)* Percent | Percent Phospho-Thr34 (DARPP-32 [1]; [4]): 144(16.7) Percent | Percent Phospho-Thr75 (DARPP-32 [1]; [5]): 105(4.5) Percent | EC50 (DARPP-32 [1]; read-out: EC50 at phospho-Ser137 DARPP-32, neostriatal slices): 18.2 µM

N[C@@H]1C[C@H]1c1ccccc1 (racemic) [tranylcypromine]
frontal cortex levels of DARPP-32 immunoreactivity (DARPP-32 [2]; rat, in vivo): significant increases

COc1ccc2[nH]cc(CCN)c2c1 [5-MT, 5-methoxytryptamine]
activity at 100 µM (DARPP-32 [1]; [6]): 261 ± 31% | activity at 100 µM (DARPP-32 [1]; [7]): 76 ± 7% | Percent Phospho-Thr34 (DARPP-32 [1]; [4]): 261(31.5)* Percent | Percent Phospho-Thr75 (DARPP-32 [1]; [5]): 76(7.6)* Percent

Clc1cccc(SC2CCNCC2)n1 [Anpirtoline]
activity at 100 µM (DARPP-32 [1]; [8]): 93% | activity at 100 µM (DARPP-32 [1]; [6]): 86% | activity at 100 µM (DARPP-32 [1]; [7]): 102%

NCCNS(=O)(=O)c1ccc(Cl)c2ccncc12 [CK1-7]
Percent Phospho-Ser137 (DARPP-32 [1]; [4]): 87(4.0)* Percent | Percent Phospho-Thr34 (DARPP-32 [1]; [4]): 102(11.5) Percent | Percent Phospho-Thr75 (DARPP-32 [1]; [5]): 96(10.0) Percent

CN1CCN(C2=Nc3cc(Cl)ccc3Nc3ccccc32)CC1 [Clozapine]
activity at 10 µM (DARPP-32 [1]; [8]): 105% | activity at 10 µM (DARPP-32 [1]; [6]): 124% | activity at 10 µM (DARPP-32 [1]; [7]): 101%

CCc1[nH]c2ccc(OC)cc2c1CCN(C)C [EMDT, 2-ethyl-5-methoxy-N,N-dimethyltryptamine]
EC50 (DARPP-32 [1]; Mus musculus, 2 min, read-out: EC50 for effect on DARPP-32 phosphorylation at Thr34): 20.5 µM | EC50 (DARPP-32 [1]; Mus musculus, 10 min, read-out: EC50 for effect on DARPP-32 phosphorylation at Thr75): 27.4 µM | phospho-Thr34 DARPP-32 (DARPP-32 [1]): 185±19% | phospho-Thr75 DARPP-32 (DARPP-32 [1]): 80±17%

O=C(c1ccc(F)cc1)C1CCN(CCn2c(=O)[nH]c3ccccc3c2=O)CC1 [Ketanserin]
activity at 10 µM (DARPP-32 [1]; [8]): 97% | activity at 10 µM (DARPP-32 [1]; [6]): 94% | activity at 10 µM (DARPP-32 [1]; [7]): 105%

c1ccc2sc(N3CCN(Cc4ccc5c(c4)OCO5)CC3)nc2c1 [PPB, 2-[1-(4-Piperonyl)piperazinyl]benzothiazole]
Percent Phospho-Ser137 (DARPP-32 [1]; [4]): 108(2.0) Percent | Percent Phospho-Thr34 (DARPP-32 [1]; [4]): 218(36.1)* Percent | Percent Phospho-Thr75 (DARPP-32 [1]; [5]): 72(8.8)* Percent | phospho-Thr34 DARPP-32 (DARPP-32 [1]): 203±15% | phospho-Thr75 DARPP-32 (DARPP-32 [1]): 84±4%

CCN1CCC[C@H]1CNC(=O)c1c(O)c(Cl)cc(Cl)c1OC [Raclopride]
activity at 10 µM (DARPP-32 [1]; [8]): 101% | activity at 10 µM (DARPP-32 [1]; [6]): 150% | activity at 10 µM (DARPP-32 [1]; [7]): 85%

CNc1cc(NS(=O)(=O)c2ccc(N)cc2)nc(NC)n1 [Ro 07-6790]
Percent Phospho-Ser137 (DARPP-32 [1]; [9]): 105(7.3) Percent | Percent Phospho-Thr34 (DARPP-32 [1]; [9]): 90(8.7) Percent | Percent Phospho-Thr75 (DARPP-32 [1]; [10]): 101(12.5) Percent

Nc1ncnc2c1ncn2[C@@H]1O[C@@H]2CO[P@@](O)(=S)O[C@H]2[C@H]1O [RpcAMPs]
Percent Phospho-Ser137 (DARPP-32 [1]; [11]): 108(10.0) Percent | Percent Phospho-Thr34 (DARPP-32 [1]; [11]): 88(13.1) Percent | Percent Phospho-Thr75 (DARPP-32 [1]; neostriatal slices, compound at 300 μM, 10 min incubation): 105(7.2) Percent

CN1CCc2cc(Cl)c(O)cc2[C@@H](c2ccccc2)C1 [SCH23390]
activity at 10 µM (DARPP-32 [1]; [6]): 76% | activity at 10 µM (DARPP-32 [1]; [7]): 109%

CCN(CC)CCOC(=O)c1cc(Cl)c(N)cc1OC [SDZ205,557]
Percent Phospho-Ser137 (DARPP-32 [1]; [9]): 102(8.8) Percent | Percent Phospho-Thr34 (DARPP-32 [1]; [9]): 94(16.7) Percent | Percent Phospho-Thr75 (DARPP-32 [1]; [10]): 103(17.5) Percent

C=CCN1CCc2c(cc(O)c(O)c2Cl)C(c2ccccc2)C1 (centres unmarked) [SKF 82958]
activity at 10 µM (DARPP-32 [1]; [8]): 115% | activity at 10 µM (DARPP-32 [1]; [6]): 552% | activity at 10 µM (DARPP-32 [1]; [7]): 65%

NC1CCN(c2cccc(Cl)n2)CC1 [SR 57227]
Percent Phospho-Ser137 (DARPP-32 [1]; [4]): 105(9.6) Percent | Percent Phospho-Thr34 (DARPP-32 [1]; [4]): 78(3.5)* Percent | Percent Phospho-Thr75 (DARPP-32 [1]; [5]): 88(4.8) Percent

NC1=N[C@H](O)[C@H]2[C@H]3O[C@]4(O)O[C@@H]([C@@H](O)[C@@]2(N1)[C@@H]4O)[C@]3(O)CO [Tetrodotoxin]
Percent Phospho-Ser137 (DARPP-32 [1]): 98(12.5) Percent | Percent Phospho-Thr34 (DARPP-32 [1]): 91.8(5.8) Percent | Percent Phospho-Thr75 (DARPP-32 [1]): 103(3.5) Percent

COc1ccc2c(c1)CC[C@@H]1[C@@H]2CC[C@]2(C)[C@@H](NCCCCCCN3C(=O)C=CC3=O)CC[C@@H]12 [U-73122]
Percent Phospho-Ser137 (DARPP-32 [1]; [9]): 86(6.2)* Percent | Percent Phospho-Thr34 (DARPP-32 [1]; [9]): 117(10.9) Percent | Percent Phospho-Thr75 (DARPP-32 [1]; [10]): 90(6.6) Percent

O=C(CCCN1CCC(O)(c2ccc(Cl)cc2)CC1)c1ccc(F)cc1 [haloperidol]
frontal cortex levels of DARPP-32 immunoreactivity (DARPP-32 [2]; chronic administration in rats): without effects

CN(C)CCCN1c2ccccc2CCc2ccccc21 [imipramine]
frontal cortex levels of DARPP-32 immunoreactivity (DARPP-32 [2]; chronic administration in rats): significant increases

CN1CC[C@]23c4c5ccc(O)c4O[C@H]2[C@@H](O)C=C[C@H]3[C@H]1C5 [morphine]
frontal cortex levels of DARPP-32 immunoreactivity (DARPP-32 [2]; rat, in vivo): without effects

B1: PP2Cb: recombinant his-tagged beta isoform of protein phosphatase 2C cloned from rat striatum (protein, UniProt P35815 2-390, looked up)
Protein phosphatase 1B: GAFLDKPKTEKHNAHGAGNGLRYGLSSMQGWRVEMEDAHTAVVGIPHGLEDWSFFAVYDGHAGSRVANYCSTHLLEHITTNEDFRAADKSGFALEPSVENVKTGIRTGFLKIDEYMRNFSDLRNGMDRSGSTAVGVMISPTHIYFINCGDSRAVLCRNGQVCFSTQDHKPCNPMEKERIQNAGGSVMIQRVNGSLAVSRALGDYDYKCVDGKGPTEQLVSPEPEVYEILRAEEDEFVVLACDGIWDVMSNEELCEFVNSRLEVSDDLENVCNWVVDTCLHKGSRDNMSIVLVCFANAPKVSDEAVKRDLELDKHLESRVEEIMQKSGEEGMPDLAHVMRILSAENIPNLPPGGGLAGKRNVIEAVYSRLNPNKDNDGGAGDLEDSLVAL
modifications: His tag
notes: recombinant his-tagged beta isoform of protein phosphatase 2C cloned from rat striatum
Km (phospho-Ser137-DARPP-32): 25.3 µM | Vmax (phospho-Ser137-DARPP-32): 0.99 µmol/mg/min | kcat (phospho-Ser137-DARPP-32): 0.78 s⁻¹ | Vmax of pNPP hydrolysis, Mn^2+ compared to Mg^2+ (higher) [3]: approximately 50 fold | Vmax ([3]; in the presence of 20 mM Mg^2+): 0.20 µmol/mg/min | kcat ([3]; in the presence of 20 mM Mg^2+): 0.16 s⁻¹ | Km ([3]; in the presence of 20 mM Mg^2+): 3200 µM | Vmax ([3]; in the presence of 20 mM Mn^2+): 10.72 µmol/mg/min | kcat ([3]; in the presence of 20 mM Mn^2+): 8.42 s⁻¹ | Km ([3]; in the presence of 20 mM Mn^2+): 2290 µM

B2: PP2Cg: recombinant his-tagged gamma isoform of protein phosphatase 2C cloned from rat striatum (protein)
chain: MGAYLSQPNTVKCSGDGVGAPRLPLPYGFSAMQGWRVSMEDAHNCIPELDNETAMFSVYDGHGGEEVALYCAKYLPDIIKDQKAYKEGKLQKALQDAFLAIDAKLTTDEVIKELAQIAGRPTEDEDDKEKVADEDDVDNEEAALLHEEATMTIEELLTRYGQNCQKGPPHTKSGTGIGDEPEPQGLNGEAGPEDPSRETPSQENGPTAKGHTGPSSNSDHGTEAGQIGEPGTATGEAGPSCSSASDKLPRVAKSKFFEDSEDESDEVEEEEDDSEECSEDEDGYSSEEAENEEDEDDTEEAEEDDDEEMMVPGMEGKEEPGSDSGTTAVVALIRGKQLIVANAGDSRCVVSEAGKALDMSYDHKPEDEVELARIKNAGGKVTMDGRVNGGLNLSRAIGDHFYKRNKNLPPQEQMISALPDIKVLTLTDDHEFMVIACDGIWNVMSSQEVVDFIQSKISQRDENGELRLLSSIVEELLDQCLAPDTSGDGTGCDNMTCIIICFKPRNTVELQPESGKRKLEEALSTEGAEENGNSDKKKAKRD
modifications: left off: small tags and cut ends
notes: recombinant his-tagged gamma isoform of protein phosphatase 2C cloned from rat striatum
Km (phospho-Ser137-DARPP-32): 7 µM | Vmax (phospho-Ser137-DARPP-32): 0.31 µmol/mg/min | kcat (phospho-Ser137-DARPP-32): 0.32 s⁻¹ | Vmax of pNPP hydrolysis, Mn^2+ compared to Mg^2+ (higher) [3]: 15 fold | Km of pNPP hydrolysis, Mn^2+ compared to Mg^2+ (lower) ([3]; Mn^2+ substitutes Mg^2+): 24 fold | Vmax ([3]; in the presence of 20 mM Mg^2+): 0.09 µmol/mg/min | kcat ([3]; in the presence of 20 mM Mg^2+): 0.094 s⁻¹ | Km ([3]; in the presence of 20 mM Mg^2+): 12800 µM | Vmax ([3]; in the presence of 20 mM Mn^2+): 1.29 µmol/mg/min | kcat ([3]; in the presence of 20 mM Mn^2+): 1.35 s⁻¹ | Km ([3]; in the presence of 20 mM Mn^2+): 520 µM

Source: patent US7320785B2, “Compositions and methods for modulation of DARPP-32 phosphorylation” (The Rockefeller University, priority 2001, dated 2008)
